According to EP3727588B1, “ACTIVATOR PEPTIDES OF THE ENZYME ADAM 10 AND RELATED USES IN THE TREATMENT OF ALZHEIMER'S DISEASE” (UNIVERSITA' DEGLI STUDI DI MILANO, priority 2017, dated 2019):
Peptide text beside a SMILES is read from it.

Legend:
[1] = system: T1, ADAM10/AP2 complex (Rattus norvegicus); assay: co-immunoprecipitation of ADAM10 with AP2 (α-adaptin) in acute hippocampal slices; assay type: cell-based; settings: 10 µM, 30 min
T1 construct: endogenous in cells; host or cells: primary hippocampal neurons of rat embryos, DIV14
Description: (§1) The acute hippocampal slices were obtained from rat brain. After carefully removing the meninges, the hippocampus was isolated and dissected using the McIlwain tissue chopper. The hippocampal slices were then transferred into supports containing Krebs buffer, in the presence of a constant flow of 95% O2 and 5% CO2 5% (v/v). The acute slices were kept for 45 min at ambient temperature before proceeding with treatment with the peptide.
(§2) For the treatments of the acute hippocampal slices, all the peptides were diluted in Krebs buffer at a concentration of 10µM. The treatments were performed for 30 minutes and subsequently the sample was immediately frozen.
(§3) For the co-immunoprecipitation experiments, aliquots of 40-100 µg of lysate were incubated at 4°C in RIA 1X buffer (NaCl 200 mM, EDTA 10 mM, Na2HPO4 10 mM, Nonidet P-40, 0.5% and 0.1% SDS) in a final volume of 150 µl with 1-2 µg of antibody. The following day the protein complex A/G (Santa Cruz Biotechnology) was added, conjugated with agarose marbles, and the incubation was continued for 2 hours. After three washes with RIA buffer the samples were loaded onto SDS-PAGE and analysed through Western Blot.
(§4) The quantization of the Western Blot analyses was performed through an image analysis program (ImageLab -BioRad). The levels of proteins were expressed as optical density (OD) related to the different measurements and were normalized on respective tubulin levels.
(§5) The samples were then processed, and the total homogenate was used to evaluate the interaction levels between ADAM10 and the complex AP2. The co-immunoprecipitation experiment (co-IP), performed using an anti-ADAM10 antibody, made it possible to verify that two of the three peptides (PEP2 (SEQ ID NO:2) and PEP3 (SEQ ID NO:1)) were able to interfere with the interaction between ADAM10 and α-adaptin, one of the subunits that constitutes the complex AP2 (Figure 1A).

ADAM10/AP2 complex [2] = molecular target: T2, ADAM10/AP2 complex (Rattus norvegicus, UniProt P62944); assay: as above; assay type: cell-based; settings: 10 µM, 30 minutes
T2 construct: endogenous in cells; host or cells: primary hippocampal neurons of rat embryos, DIV14
Description: as §1, §2, §3, §4, §5

ADAM10/AP2 complex [3] = molecular target: T2, ADAM10/AP2 complex; assay: co-immunoprecipitation of ADAM10 with AP2 subunits in primary cultures of hippocampal neurons; assay type: cell-based
Description: The primary cultures were prepared from hippocampi of rat embryos as described in [20]. The cultures were grown in media containing Neurobasal (Life Technologies), B27 2% (Life Technologies), GlutaMAX 1% (Life Technologies) and Penicillin/Streptomycin 1% (Pen/Strep; Life Technologies), a 37 °C with 95% humidity and 5% CO2 for 14 days. The cells were treated by diluting the peptides in the complete growth medium, at a final concentration of 1 µM. The treatment was performed for 30 minutes at 37°C, then the neurons were lysed.
as §3, §4
After 30 minutes, the cells were processed and the cell lysate was used for performing the co-IP analyses.

[4] = Novel Object Recognition Test (NORT), C57BL/6 mice; assay type: in vivo; settings: 14 days' treatment
Description: (§6) C57/BL6 adult mice were treated for 14 days with daily intraperitoneal injection of saline solution or peptides at a dose of 3 nmol/g (6-10 animals per experimental group). The animals were maintained in an enclosure at 25 ± 2 °C with an alternating light/dark cycle of 12 hours and had free access to water and food in the form of pellets (standard diet).
After 14 days of treatment the animals were subjected to the Novel Object Recognition Test (NORT). Such test is structured in three phases: habituation, familiarization and testing. In the first phase, the animal is placed in an empty arena and left free to explore the environment for 5 minutes. The day after, during the familiarization phase, the animal is placed in the same arena in the presence of two objects, identical in shape and size, for 10 minutes. Then the time spent by the animal exploring the individual object is recorded. On the third day, the animal is placed in the area in the presence of an identical object to that used in the familiarization phase and a new one. In this phase the difference in time spent by the animal exploring the familiar object and the new object is evaluated. […] In both phases of the test, the objects are positioned symmetrically and opposite inside the arena, and all the sessions are recorded with the aid of a video camera. […]

[5] = system: GFAP and Iba-1 positive cells; assay: neuro-inflammation: GFAP and Iba-1 positive cells in hippocampus; assay type: in vivo, mice; settings: 5 fields, 14 days' treatment
Description: as §6
After the sacrifice of the treated animal, a portion of liver and a brain hemisphere were fixed in 10% formalin for 48 hours, and included in paraffin. From each block of paraffin, serial sections 5/6µm thick were obtained. The sections were then stained with haematoxylin-eosin or processed through immunohistochemistry.
Subsequently, to evaluate the presence of neuro-inflammation, 5 different fields of the hippocampus were considered to verify any presence of GFAP and Iba-1 positive cells.

[6] = primary cultures of neurons, 1µM, 30 min
[7] = primary hippocampal neurons DIV 14, 1 µM, 30 minutes

T2 sequence (P18484 whole entry): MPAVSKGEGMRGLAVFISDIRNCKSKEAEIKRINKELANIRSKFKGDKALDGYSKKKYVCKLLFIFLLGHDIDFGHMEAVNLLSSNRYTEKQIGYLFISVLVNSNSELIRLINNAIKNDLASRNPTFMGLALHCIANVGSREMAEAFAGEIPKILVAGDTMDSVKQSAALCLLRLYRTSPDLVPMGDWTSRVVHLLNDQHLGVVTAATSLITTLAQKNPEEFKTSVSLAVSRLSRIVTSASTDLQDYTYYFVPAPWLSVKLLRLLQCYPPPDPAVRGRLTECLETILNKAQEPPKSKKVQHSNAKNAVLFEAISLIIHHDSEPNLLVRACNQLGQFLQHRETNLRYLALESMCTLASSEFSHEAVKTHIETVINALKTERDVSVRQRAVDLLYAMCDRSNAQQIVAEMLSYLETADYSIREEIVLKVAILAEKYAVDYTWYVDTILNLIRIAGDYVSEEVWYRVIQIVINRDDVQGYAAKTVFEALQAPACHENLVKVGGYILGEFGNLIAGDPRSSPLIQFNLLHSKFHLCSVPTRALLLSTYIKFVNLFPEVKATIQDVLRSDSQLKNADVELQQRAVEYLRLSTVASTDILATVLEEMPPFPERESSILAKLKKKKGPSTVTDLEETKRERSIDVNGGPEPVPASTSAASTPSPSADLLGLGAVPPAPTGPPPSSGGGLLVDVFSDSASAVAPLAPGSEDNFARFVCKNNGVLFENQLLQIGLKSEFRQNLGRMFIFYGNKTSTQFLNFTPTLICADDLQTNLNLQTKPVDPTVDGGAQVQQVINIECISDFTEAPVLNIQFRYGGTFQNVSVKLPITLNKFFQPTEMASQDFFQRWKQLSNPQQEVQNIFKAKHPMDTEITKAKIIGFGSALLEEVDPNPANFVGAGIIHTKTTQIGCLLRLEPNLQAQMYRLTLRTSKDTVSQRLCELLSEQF
T2 sequence (P62744 whole entry, further chain): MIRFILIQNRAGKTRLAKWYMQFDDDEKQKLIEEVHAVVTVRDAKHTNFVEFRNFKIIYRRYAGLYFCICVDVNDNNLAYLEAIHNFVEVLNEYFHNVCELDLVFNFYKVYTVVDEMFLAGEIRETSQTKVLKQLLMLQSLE
T2 sequence (P84092 whole entry, further chain): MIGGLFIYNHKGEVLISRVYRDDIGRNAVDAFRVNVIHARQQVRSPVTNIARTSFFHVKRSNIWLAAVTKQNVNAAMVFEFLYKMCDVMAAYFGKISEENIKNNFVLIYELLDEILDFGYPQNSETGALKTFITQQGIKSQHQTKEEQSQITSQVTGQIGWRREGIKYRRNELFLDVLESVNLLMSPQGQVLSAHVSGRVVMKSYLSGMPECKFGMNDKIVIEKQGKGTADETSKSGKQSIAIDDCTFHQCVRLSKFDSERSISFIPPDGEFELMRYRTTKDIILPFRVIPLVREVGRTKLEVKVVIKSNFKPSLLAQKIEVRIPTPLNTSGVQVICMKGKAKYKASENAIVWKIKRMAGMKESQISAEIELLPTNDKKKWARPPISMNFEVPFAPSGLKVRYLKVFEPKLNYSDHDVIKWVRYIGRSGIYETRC
T2 sequence (P62944 whole entry): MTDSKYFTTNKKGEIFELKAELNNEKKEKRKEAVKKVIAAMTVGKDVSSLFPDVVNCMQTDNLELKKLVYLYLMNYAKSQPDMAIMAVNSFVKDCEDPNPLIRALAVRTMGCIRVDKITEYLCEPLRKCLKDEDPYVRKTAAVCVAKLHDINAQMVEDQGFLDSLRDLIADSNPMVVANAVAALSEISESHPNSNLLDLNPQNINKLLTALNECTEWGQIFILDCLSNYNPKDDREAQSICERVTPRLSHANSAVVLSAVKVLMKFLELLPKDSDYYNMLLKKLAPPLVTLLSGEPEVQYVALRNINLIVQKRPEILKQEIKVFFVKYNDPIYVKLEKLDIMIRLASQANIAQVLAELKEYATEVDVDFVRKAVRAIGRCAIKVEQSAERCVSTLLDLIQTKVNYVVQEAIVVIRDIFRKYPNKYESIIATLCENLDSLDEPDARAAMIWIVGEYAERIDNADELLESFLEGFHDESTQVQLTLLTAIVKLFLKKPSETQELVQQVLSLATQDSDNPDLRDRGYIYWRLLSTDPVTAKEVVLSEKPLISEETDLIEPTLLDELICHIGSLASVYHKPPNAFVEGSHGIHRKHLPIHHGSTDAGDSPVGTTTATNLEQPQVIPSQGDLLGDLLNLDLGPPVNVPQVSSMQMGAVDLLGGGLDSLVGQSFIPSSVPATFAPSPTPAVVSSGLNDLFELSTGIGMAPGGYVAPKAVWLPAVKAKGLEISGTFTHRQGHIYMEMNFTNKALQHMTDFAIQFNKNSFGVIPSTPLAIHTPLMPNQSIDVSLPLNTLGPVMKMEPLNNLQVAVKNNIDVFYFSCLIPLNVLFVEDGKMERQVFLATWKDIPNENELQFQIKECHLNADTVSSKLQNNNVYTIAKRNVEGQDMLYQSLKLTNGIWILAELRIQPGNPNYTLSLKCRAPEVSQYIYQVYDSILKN
T1 sequence (P18484 whole entry): as the sequence (P18484 whole entry) above
T1 sequence (P62744 whole entry, further chain): as the sequence (P62744 whole entry, further chain) above
T1 sequence (P84092 whole entry, further chain): as the sequence (P84092 whole entry, further chain) above
T1 sequence (P62944 whole entry, further chain): as the sequence (P62944 whole entry) above

## N=C(N)NCCC[C@H](NC(=O)CNC(=O)[C@@H](N)Cc1ccc(O)cc1)C(=O)N[C@@H](CCCCN)C(=O)N[C@@H](CCCCN)C(=O)N[C@@H](CCCNC(=N)N)C(=O)N[C@@H](CCCNC(=N)N)C(=O)N[C@@H](CCC(N)=O)C(=O)N[C@@H](CCCNC(=N)N)C(=O)N[C@@H](CCCNC(=N)N)C(=O)N[C@@H](CCCNC(=N)N)C(=O)NCC(=O)NCC(=O)N[C@@H](CO)C(=O)NCC(=O)N[C@@H](CCC(N)=O)C(=O)N1CCC[C@H]1C(=O)N1CCC[C@H]1C(=O)N[C@@H](CCCNC(=N)N)C(=O)N[C@@H](CCC(N)=O)C(=O)N[C@@H](CCCNC(=N)N)C(=O)N1CCC[C@H]1C(=O)N[C@@H](CCCNC(=N)N)C(=O)NCC(=O)O [PEP3] (H-YGRKKRRQRRRGGSGQPPRQRPRG-OH)
[1]
  PEP/inPEP ratio of optical density (OD), ADAM10/AP2 complex (α-adaptin): 37.40 ± 21.76%
ADAM10/AP2 complex [2]
  reduction of the interaction between ADAM10 and α-adaptin: 62.6%
ADAM10/AP2 complex [3]; [6]
  PEP/inPEP OD, ADAM10/AP2 complex, µ2: 22.43 ± 1.25%
  PEP/inPEP OD, ADAM10/AP2 complex, α-adaptin: 10.84 ± 5.61%
ADAM10/AP2 complex [3]; [7]
  reduction in the levels of interaction between ADAM10 and the complex AP2, subunit µ2: 78%
  reduction in the levels of interaction between ADAM10 and the complex AP2, subunit α-adaptin: 89%
[4]
  time exploring the new object: 63.52 ± 4.69%
[5]
  number of GFAP positive cells: 37.17±3.54
  number of Iba-1 positive cells: 7.33±1.63
